“Also recorded” adds a separate entry of the source. Read-outs that look alike come from different tables or passages of the source. One block for each molecule: values may come before it.
Columns and labels:
cardiac myocytes [1] = details: cited from earlier work
AC5 [2] = details: cited from earlier work
AC2 [3] = target: AC2 (UniProt P26769); test: Inhibition of recombinant AC2 (baculovirus overexpression system); details: for IC50: read-out: IC50 AC2, recombinant AC proteins, Table 1; for inhibition of AC2: in the presence of Gs-α/GTPαS/forskolin
AC5 [4] = target: AC5 (UniProt P30803); test: Inhibition of recombinant AC5 (baculovirus overexpression system); type: biochemical; parameters: IC50 AC5
AC5 [5] = test: as above; type: biochemical; details: for Selectivity ratio for AC5, AC5/AC2: ratio of IC50 for AC5 to that for AC2; for Selectivity ratio for AC5, AC5/AC3: ratio of IC50 for AC5 to that for AC3
[6] = system: cultured cardiac myocytes; test: ISO-induced apoptosis and contraction in cultured cardiac myocytes; type: cell-based
cardiac myocytes [7] = test: ISO-induced cAMP accumulation in cardiac myocytes; type: cell-based, mouse
Description: Decreases in cAMP in AC5 KO were observed only at high ISO concentrations. […] (Toya et al., J Mol Cell Cardiol., 1998; 30(1):97-108)

AC3 = target: T1, AC3 (Rattus norvegicus, UniProt P21932); test: Inhibition of recombinant AC3 (baculovirus overexpression system); type: biochemical; details: for inhibition of AC3: in the presence of Gs-α/GTPαS/forskolin
T1 construct: made in house; host or cells: insect cells (baculovirus)
T1 sequence (P21932 1-1144): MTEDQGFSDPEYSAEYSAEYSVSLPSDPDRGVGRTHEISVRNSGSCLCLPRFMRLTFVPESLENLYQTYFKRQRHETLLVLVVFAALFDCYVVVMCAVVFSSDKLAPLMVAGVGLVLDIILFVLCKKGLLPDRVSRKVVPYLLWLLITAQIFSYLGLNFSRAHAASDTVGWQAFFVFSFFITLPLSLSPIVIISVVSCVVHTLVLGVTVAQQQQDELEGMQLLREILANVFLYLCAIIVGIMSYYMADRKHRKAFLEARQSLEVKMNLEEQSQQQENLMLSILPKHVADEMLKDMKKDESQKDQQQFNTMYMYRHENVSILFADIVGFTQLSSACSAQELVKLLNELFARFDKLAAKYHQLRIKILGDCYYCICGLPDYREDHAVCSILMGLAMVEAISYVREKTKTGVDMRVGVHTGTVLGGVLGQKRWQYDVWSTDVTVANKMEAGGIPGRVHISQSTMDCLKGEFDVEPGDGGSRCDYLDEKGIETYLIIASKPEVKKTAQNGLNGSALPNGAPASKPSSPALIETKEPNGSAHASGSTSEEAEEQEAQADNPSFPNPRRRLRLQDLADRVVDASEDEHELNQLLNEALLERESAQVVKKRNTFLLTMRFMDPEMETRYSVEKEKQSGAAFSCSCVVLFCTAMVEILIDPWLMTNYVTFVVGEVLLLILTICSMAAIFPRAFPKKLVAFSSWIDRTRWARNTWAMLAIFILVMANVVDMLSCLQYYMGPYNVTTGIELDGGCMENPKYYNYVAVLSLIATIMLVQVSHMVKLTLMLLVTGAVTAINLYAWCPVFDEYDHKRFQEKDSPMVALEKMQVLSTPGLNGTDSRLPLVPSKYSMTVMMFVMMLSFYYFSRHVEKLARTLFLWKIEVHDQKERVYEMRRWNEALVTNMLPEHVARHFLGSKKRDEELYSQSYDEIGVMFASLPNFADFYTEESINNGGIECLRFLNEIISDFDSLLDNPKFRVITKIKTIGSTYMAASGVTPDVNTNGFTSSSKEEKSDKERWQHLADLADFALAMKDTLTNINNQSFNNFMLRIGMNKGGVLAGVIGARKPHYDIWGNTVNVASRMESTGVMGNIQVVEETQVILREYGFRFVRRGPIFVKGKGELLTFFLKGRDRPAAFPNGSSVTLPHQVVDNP

[8] = system: AC activity in the heart of dogs; test: Forskolin-induced haemodynamic response in instrumented dog; type: in vivo; details: AraAde 15 mg/kg intravenously, forskolin 50 nmol/kg
Description: An adult mongrel dog (16.5 kg, male) was surgically instrumented, for measurements of LV pressure (P), LV dP/dt, aortic pressure, ascending aortic blood flow (stroke volume) and mean aortic blood flow (cardiac output). (a) The response to intravenous infusion of Forskolin (50 nmol/kg) is shown on the phasic waveforms on the left. LV dP/dt, aortic flow (stroke volume) and mean aortic flow (cardiac output) are increased.

[9] = system: C57Bl/6 mice with chronic ISO infusion; test: Chronic ISO infusion model; type: in vivo, mouse
Description: Mice were then subjected to echocardiography (LVEF) (A); and tissue was harvested for pathological examination of myocardial apoptosis (by TUNEL) (B); and fibrosis (by PASR) (C). n=4-9.*p<0.05 vs. all other groups. […] Thus, this AC5 inhibitor is protective against the development of ISO-induced cardiomyopathy.

brain function = test: Bradykinesia and locomotor activity; details: as observed in AC5 KO
AC5 [10] = test: Forskolin-stimulated 32P-cAMP production in heart membranes from AC5 Tg mice; type: biochemical, mouse; parameters: dose or concentration left out as unconfirmed; details: n=4
AC6 = test: Forskolin-stimulated 32P-cAMP production in heart membranes from AC6 Tg mice; type: biochemical, mouse; details: forskolin 50 mM, n=4
Protocol: (§1) Hearts were dissected from the mice and membrane preparations were prepared as described previously. Protein concentration was measured by the method of Bradford using bovine serum albumin as a standard. AC activity was measured as described previously. AC activity was linear within the incubation time up to 30 min. In order to harvest hearts for tissue cAMP content measurements, mice were allowed to acclimate to the surroundings in the laboratory for an hour before sacrifice. Freshly isolated hearts were briefly immersed in liquid nitrogen. The tissue was homogenized in ice-cold 6% percholic acid, and cAMP was extracted as described before. The concentration of cAMP was determined with an RIA kit (PerkinElmer Life Sciences, Boston, Mass., USA).

[11] = system: high-fat-diet-fed C57BL/6 mice; test: High-fat-diet-fed C57BL/6 mice treated with AraAde; type: in vivo, mouse; parameters: insulin resistance, HOMA IR: unit not given here
myocardial infarction = test: Survival after myocardial infarction; details: in vivo
[12] = Tolerability of subcutaneous mini-osmotic pump infusion; type: in vivo; details: infused subcutaneously, up to 3 months
AC5 [13] = target: AC5 (UniProt P30803); test: Inhibition of recombinant AC5 (baculovirus overexpression system); type: biochemical; parameters: IC50 for AC5; other: in the presence of Gs-α/GTPαS/forskolin; details: in the presence of Gs-α/GTPαS/forskolin
AC2 [14] = details: previously noted; cited from earlier work
[15] = system: AC activity in heart membranes; test: ISO-stimulated AC activity in heart membranes of WT and AC5KO mice; type: biochemical, mouse; details: 10 μM
Protocol: as §1
cAMP production in membranes from the hearts of AC5KO and WT at 6 months of age was examined. The steady state AC activity was determined as the maximal capacity of cAMP production in the presence of ISO (100 μM ISO+100 μM GTP), GTPγS (100 μM) or forskolin (100 μM). […] Basal cardiac function was not decreased, but the response to ISO and muscarinic inhibition of ISO were attenuated.

[16] = occur in roughly half of administered patients; cited from earlier work
[17] = recombinant AC proteins, Table 1, read-out: IC50 AC5
[18] = recombinant AC proteins, Table 1, read-out: IC50 AC3

SMILES: Nc1ncc2c(n1)CC(c1ccco1)CC2=O (stereo not drawn) [NKY80, 2-amino-7-(2-furanyl)-7,8-dihydro-5(6H)-quinazoline]
inhibition of cAMP accumulation in cultured cardiac myocytes (cardiac myocytes [1]): does not inhibit | inhibition of purified AC5 protein in vitro (AC5 [2]): moderate inhibition

SMILES: C[C@H]1O[C@@H](n2cnc3c(N)ncnc32)C[C@@H]1O [2′5′-dd-Ado, 2′5′ dideoxyadenosine]
IC50 (AC2 [3]): 2380 µM | IC50 (AC5 [4]; [17]): 1.6 µM | Selectivity ratio for AC5, AC5/AC2 (AC5 [5]): 0.00067 | Selectivity ratio for AC5, AC5/AC3 (AC5 [5]): 0.0063 | ISO induced apoptosis in cultured cardiac myocytes [6]: prevented | contraction in cultured cardiac myocytes [6]: without impairing contraction | maximum level of suppression of ISO-induced cAMP accumulation (cardiac myocytes [7]): around 30% | IC50 (AC3): 253 µM

SMILES: Nc1ncnc2c1ncn2[C@@H]1O[C@H](CO)[C@@H](O)[C@@H]1O [AraAde, 9-β-D-arabinofuranosyladenine]
forskolin-induced LV dP/dt max [8]: attenuated | forskolin-induced cardiac output [8]: attenuated | IC50 (AC2 [3]): 7200 µM | ISO-induced cardiac fibrosis (PASR) ([9]; AraAde 100 μg/g/day): significantly inhibited | ISO-induced myocardial apoptosis (TUNEL) ([9]; AraAde 100 μg/g/day): significantly inhibited | chronic ISO-induced decreases in LVEF ([9]; AraAde 20 mg/kg/day for 1 week, echocardiography): inhibited | exercise performance, maximum treadmill speed ([9]; chronic ISO 60 mg/kg/day for 1 week, AraAde 15 mg/kg/day, n=4-6): rescued exercise performance | IC50 (AC5 [4]; [17]): 9.8 µM | bradykinesia and impaired locomotor activity (brain function): does not induce | forskolin induced cAMP production, hearts from AC5 Tg (AC5 [10]): dramatically decreased | forskolin induced cAMP production, hearts from AC6 Tg (AC6): not | plasma insulin level ([11]; 15 mg/kg/day, high-fat diet): unchanged; also recorded: the elevation in insulin was minimal | fasting blood glucose ([11]; 15 mg/kg/day, high-fat diet, vs vehicle): decreased | glucose tolerance ([11]; 94 days high fat diet, 42 days AraAde): improved | insulin resistance, HOMA IR ([11]; terminal blood after 6-7 hour fast, n=2): 6.38 | survival rate after myocardial infarction (myocardial infarction): increased | tolerability [12]: well tolerated | ISO induced apoptosis in cultured cardiac myocytes [6]: prevented | maximum level of suppression of ISO-induced cAMP accumulation (cardiac myocytes [7]): around 30% | IC50 (AC3; [18]): 375 µM

SMILES: Nc1ncnc2c1ncn2C1CCCO1 (stereo not drawn) [THFA, 9-(tetrahydro-2-furyl) adenine]
inhibition of AC5 (AC5 [13]): potently inhibited | inhibition of AC2 (AC2 [3]): only to a modest degree | selectivity ratio between AC5 and AC2 (AC5 [5]): 130 | selectivity ratio between AC6 and AC2 (AC2 [14]): 1.8 | inhibition of AC3 (AC3): only to a modest degree

IC50 (AC5 [4]; read-out: IC50 for AC5): 14.6 µM
SMILES: Nc1ncnc2c1ncn2[C@@H]1O[C@H](CO)[C@@H](OP(=O)(O)O)[C@H]1O [3′-AMP]

SMILES: C[N+](C)(C)CCOC(N)=O [Carbachol]
inhibition of ISO-stimulated AC activity in AC5KO ([15]; AC5KO heart membranes): did not inhibit | decrease of ISO-stimulated AC activity in WT ([15]; WT heart membranes): 21+/−3.4%

SMILES: Nc1nc(F)nc2c1ncn2[C@@H]1O[C@H](CO)[C@@H](O)[C@@H]1O [fludarabine]
adverse effects in patients [16]: severe adverse effects including bone marrow suppression

IC50 (AC5 [4]; read-out: IC50 for AC5): 0.82 µM
SMILES: Nc1ncnc2c1ncn2[C@H]1C[C@H](OP(=O)(O)O)[C@@H](CO)O1 [2′-d-3′-AMP]

IC50 (AC2 [3]): 65.3 µM | IC50 (AC5 [4]; [17]): 0.32 µM | IC50 (AC3; [18]): 11.1 µM
SMILES: Nc1ncnc2c1ncn2C1CCC(C(=O)NO)C1 (stereo not drawn) [PMC-6]
Selectivity ratio for AC5, AC5/AC2 (AC5 [5]): 0.0049 | Selectivity ratio for AC5, AC5/AC3 (AC5 [5]): 0.029

inhibition of AC5 (AC5 [13]): potently inhibited | inhibition of AC2 (AC2 [3]): only to a modest degree | inhibition of AC3 (AC3): only to a modest degree
SMILES: Nc1ncnc2c1ncn2C1CCCC1 [CPA, 9-(cyclopentyl) adenine]

From patent publication US8440640B2, “Methods and compositions for treating obesity and related disorders” (University of Medicine and Dentistry of New Jersey, priority 2008, dated 2013)
